Among the data in ChEMBL document CHEMBL1136213, “2,6-disubstituted pyran-4-one and thiopyran-4-one inhibitors of DNA-Dependent protein kinase (DNA-PK)” (Bioorg Med Chem Lett, 2003) are IC50 and Ki values, retold here.

Experiment [1] concerns the target T1, DNA-dependent protein kinase catalytic subunit (Homo sapiens, UniProt P78527). Kind of experiment: In vitro inhibition of DNA-dependent protein kinase(DNA-PK) from HeLa (human carcinoma) cells. Type of experiment: cell-based.
Experiment [2] deals with T1, DNA-dependent protein kinase catalytic subunit. Kind of experiment: Affinity for DNA-dependent protein kinase(DNA-PK) from HeLa cell extract.

T1 sequence (P78527 whole entry): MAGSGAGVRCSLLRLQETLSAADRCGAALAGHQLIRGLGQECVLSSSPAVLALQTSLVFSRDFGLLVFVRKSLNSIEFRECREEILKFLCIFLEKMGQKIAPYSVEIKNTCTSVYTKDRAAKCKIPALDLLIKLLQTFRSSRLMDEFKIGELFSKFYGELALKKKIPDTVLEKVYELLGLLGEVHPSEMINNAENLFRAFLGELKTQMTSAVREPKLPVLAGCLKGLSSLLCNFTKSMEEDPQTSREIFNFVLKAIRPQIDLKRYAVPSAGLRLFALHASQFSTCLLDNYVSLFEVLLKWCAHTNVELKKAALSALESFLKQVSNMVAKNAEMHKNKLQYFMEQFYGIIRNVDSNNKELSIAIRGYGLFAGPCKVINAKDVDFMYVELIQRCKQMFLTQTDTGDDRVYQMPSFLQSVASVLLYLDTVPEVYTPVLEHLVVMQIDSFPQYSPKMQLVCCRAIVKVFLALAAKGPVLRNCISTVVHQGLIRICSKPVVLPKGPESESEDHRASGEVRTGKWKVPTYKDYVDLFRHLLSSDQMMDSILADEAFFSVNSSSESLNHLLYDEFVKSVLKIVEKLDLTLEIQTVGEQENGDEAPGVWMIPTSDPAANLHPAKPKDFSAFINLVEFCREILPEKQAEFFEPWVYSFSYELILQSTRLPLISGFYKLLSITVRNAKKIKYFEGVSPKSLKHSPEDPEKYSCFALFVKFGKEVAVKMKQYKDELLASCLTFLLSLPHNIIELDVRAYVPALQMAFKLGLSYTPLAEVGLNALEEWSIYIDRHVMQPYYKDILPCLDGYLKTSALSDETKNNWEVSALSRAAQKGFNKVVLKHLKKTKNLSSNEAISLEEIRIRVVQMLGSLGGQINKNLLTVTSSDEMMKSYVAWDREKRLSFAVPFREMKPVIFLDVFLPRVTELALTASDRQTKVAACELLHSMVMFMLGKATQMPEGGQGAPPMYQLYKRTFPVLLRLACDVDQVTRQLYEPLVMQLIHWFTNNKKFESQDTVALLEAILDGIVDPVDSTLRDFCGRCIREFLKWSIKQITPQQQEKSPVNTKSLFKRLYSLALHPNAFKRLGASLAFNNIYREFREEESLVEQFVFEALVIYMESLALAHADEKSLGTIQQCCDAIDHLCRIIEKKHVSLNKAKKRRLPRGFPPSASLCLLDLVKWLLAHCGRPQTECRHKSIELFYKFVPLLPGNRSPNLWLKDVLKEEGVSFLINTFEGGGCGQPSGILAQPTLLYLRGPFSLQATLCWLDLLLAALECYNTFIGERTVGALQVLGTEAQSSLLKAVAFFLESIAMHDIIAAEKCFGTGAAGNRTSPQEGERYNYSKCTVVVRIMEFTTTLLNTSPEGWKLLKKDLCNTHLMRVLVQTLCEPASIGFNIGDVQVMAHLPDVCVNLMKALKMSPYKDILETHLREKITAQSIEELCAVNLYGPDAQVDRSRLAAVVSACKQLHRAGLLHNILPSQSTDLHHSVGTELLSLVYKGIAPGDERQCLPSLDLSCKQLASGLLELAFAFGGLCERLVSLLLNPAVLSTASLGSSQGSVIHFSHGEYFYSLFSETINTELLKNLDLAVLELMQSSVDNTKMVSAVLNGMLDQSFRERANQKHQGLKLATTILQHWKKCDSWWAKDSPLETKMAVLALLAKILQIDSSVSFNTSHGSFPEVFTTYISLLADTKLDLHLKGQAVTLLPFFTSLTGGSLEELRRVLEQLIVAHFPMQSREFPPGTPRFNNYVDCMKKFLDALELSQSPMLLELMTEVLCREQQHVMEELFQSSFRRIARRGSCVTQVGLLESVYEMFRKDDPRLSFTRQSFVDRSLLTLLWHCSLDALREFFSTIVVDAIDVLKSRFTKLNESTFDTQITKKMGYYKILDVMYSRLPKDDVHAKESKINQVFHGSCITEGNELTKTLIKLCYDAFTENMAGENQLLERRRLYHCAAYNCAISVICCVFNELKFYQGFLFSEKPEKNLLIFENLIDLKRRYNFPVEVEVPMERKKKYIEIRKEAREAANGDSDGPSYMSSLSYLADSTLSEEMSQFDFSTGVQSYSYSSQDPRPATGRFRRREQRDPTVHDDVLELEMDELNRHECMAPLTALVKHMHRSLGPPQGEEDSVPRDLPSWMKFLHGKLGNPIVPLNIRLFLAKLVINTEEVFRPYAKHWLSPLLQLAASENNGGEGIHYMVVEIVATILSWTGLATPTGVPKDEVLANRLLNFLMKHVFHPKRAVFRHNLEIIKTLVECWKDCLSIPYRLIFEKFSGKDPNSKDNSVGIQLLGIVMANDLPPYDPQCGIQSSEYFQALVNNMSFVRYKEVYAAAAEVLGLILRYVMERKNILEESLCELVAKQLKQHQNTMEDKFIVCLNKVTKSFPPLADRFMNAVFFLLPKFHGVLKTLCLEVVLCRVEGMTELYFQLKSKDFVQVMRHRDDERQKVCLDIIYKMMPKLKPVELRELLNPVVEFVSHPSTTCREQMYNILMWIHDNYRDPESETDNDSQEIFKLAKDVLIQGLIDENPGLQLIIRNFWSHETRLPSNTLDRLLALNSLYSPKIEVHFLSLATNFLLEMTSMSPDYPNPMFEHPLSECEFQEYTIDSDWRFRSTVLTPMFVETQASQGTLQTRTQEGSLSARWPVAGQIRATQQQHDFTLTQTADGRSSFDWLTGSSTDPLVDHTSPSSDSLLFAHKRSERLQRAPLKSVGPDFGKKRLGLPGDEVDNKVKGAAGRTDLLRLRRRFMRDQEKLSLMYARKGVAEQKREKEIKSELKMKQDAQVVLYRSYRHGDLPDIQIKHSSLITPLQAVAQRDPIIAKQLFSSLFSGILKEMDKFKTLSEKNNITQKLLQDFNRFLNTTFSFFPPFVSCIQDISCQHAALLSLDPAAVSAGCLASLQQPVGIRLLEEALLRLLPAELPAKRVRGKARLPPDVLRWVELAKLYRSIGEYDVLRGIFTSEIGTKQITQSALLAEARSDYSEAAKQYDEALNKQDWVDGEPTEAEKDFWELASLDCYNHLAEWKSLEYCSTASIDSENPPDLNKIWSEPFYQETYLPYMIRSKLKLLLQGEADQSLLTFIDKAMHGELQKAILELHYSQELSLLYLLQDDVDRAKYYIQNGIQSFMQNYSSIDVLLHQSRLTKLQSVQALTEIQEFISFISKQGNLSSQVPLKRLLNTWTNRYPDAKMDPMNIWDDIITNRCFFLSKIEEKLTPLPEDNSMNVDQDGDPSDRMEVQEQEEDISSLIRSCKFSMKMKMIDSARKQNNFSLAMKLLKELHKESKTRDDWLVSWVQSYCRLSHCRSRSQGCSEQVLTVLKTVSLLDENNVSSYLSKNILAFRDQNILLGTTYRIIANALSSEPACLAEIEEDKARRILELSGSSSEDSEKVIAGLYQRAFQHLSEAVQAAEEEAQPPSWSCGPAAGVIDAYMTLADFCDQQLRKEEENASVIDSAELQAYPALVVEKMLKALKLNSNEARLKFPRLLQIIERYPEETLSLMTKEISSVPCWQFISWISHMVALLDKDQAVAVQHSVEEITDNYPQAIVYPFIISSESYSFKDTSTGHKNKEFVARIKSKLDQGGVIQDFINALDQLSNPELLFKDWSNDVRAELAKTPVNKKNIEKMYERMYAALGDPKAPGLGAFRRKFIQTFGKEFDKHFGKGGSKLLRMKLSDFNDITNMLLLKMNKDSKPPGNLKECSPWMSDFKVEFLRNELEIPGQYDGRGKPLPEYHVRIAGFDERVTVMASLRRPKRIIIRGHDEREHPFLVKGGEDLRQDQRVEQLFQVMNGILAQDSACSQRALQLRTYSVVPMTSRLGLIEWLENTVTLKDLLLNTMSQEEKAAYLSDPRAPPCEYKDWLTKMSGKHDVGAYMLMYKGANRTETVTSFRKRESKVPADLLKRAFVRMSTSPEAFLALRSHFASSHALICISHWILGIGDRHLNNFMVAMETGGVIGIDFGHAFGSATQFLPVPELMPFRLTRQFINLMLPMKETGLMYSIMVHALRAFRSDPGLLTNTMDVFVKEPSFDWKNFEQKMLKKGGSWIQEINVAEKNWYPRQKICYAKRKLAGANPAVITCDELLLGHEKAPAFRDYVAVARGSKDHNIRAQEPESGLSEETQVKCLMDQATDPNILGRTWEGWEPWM

By IC50 is commonly meant the concentration at which inhibition is half-maximal. Consider `O=c1cc(-c2cccc(-c3ccc(O)cc3)c2)sc(N2CCOCC2)c1`, for which the IC50 in experiment [1] stood at 350 nM.
The same measure, in the same setting: the figure for `O=c1cc(N2CCOCC2)oc2c1ccc1ccccc12` is 230 nM.
By Ki is commonly meant the equilibrium dissociation constant of an inhibitor or competing ligand from its target. As for `O=c1cc(N2CCOCC2)oc2c(-c3ccccc3)cccc12` [LY-294002], the Ki in experiment [2] is 6 µM.
